Activity calls are given as the source filed them.
Assays:
[1] = Luminescence Cell-Based Dose Response to Identify Activators of 5'UTR Stem-Loop Driven Prion Protein mRNA Translation in H4-C Neuroglioblastoma Cells. [Related pubchem assays: 1829 (Project Summary), 1814 (Primary HTS)]; assay type: functional
[2] = Luminescence Cell-Based Dose Response to Identify Activators of Luciferase Translation or Activity in H4-C Neuroglioblastoma Cells. [Related pubchem assays: 1829 (Project Summary), 1814 (Primary HTS)]; assay type: functional
[3] = Luminescence Cell-Based Dose Response HTS to Identify Activators of Luciferase Translation or Activity in H4 […] Cells. [Related pubchem assays: 1829 (Project Summary), 1814 (Primary HTS)]; assay type: functional
[4] = Luminescence Cell-Based Dose Confirmation to Identify Activators of 5'UTR Stem-Loop Driven Alpha-Synuclein mRNA Translation in H4 Neuroglioblastoma Cells. [Related pubchem assays: 1829 (Project Summary), 1814 (Primary HTS)]; assay type: functional
Caspase-6 = biological target: T1, Caspase-6 (Homo sapiens, UniProt P55212); assay: inhibition of CASP6 peptide cleavage – biochemical, VEID-R110 fluorescence, cherry-pick, dose response (AID 720632)
T1 sequence (P55212 whole entry): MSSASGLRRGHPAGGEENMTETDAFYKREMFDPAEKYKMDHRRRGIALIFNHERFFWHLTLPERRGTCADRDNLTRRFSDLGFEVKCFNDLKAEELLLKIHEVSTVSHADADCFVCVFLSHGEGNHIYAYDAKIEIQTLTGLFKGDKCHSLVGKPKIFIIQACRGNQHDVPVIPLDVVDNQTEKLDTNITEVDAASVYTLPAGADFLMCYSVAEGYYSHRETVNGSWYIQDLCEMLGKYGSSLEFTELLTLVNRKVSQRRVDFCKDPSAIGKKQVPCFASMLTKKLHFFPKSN

[5] = biological target: T2, Carboxy-terminal domain RNA polymerase II polypeptide A small phosphatase 1 (Homo sapiens, UniProt Q9GZU7); assay: CTDSP1 inhibitors, concentration-response, biochemical, absorbance readout, ultra-high-throughput screen actives (AID 540297); assay type: functional
T2 sequence (Q9GZU7 whole entry): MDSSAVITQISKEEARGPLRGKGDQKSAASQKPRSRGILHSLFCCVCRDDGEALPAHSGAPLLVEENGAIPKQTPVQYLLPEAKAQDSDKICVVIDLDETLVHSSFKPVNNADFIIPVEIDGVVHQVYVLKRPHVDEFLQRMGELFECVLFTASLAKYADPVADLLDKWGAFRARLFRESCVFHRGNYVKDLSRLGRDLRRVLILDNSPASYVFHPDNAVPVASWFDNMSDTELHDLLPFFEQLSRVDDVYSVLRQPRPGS

[6] = biological target: T3, Histone-lysine N-methyltransferase NSD2 (Homo sapiens, UniProt O96028); assay type: biochemical
T3 sequence (O96028 whole entry): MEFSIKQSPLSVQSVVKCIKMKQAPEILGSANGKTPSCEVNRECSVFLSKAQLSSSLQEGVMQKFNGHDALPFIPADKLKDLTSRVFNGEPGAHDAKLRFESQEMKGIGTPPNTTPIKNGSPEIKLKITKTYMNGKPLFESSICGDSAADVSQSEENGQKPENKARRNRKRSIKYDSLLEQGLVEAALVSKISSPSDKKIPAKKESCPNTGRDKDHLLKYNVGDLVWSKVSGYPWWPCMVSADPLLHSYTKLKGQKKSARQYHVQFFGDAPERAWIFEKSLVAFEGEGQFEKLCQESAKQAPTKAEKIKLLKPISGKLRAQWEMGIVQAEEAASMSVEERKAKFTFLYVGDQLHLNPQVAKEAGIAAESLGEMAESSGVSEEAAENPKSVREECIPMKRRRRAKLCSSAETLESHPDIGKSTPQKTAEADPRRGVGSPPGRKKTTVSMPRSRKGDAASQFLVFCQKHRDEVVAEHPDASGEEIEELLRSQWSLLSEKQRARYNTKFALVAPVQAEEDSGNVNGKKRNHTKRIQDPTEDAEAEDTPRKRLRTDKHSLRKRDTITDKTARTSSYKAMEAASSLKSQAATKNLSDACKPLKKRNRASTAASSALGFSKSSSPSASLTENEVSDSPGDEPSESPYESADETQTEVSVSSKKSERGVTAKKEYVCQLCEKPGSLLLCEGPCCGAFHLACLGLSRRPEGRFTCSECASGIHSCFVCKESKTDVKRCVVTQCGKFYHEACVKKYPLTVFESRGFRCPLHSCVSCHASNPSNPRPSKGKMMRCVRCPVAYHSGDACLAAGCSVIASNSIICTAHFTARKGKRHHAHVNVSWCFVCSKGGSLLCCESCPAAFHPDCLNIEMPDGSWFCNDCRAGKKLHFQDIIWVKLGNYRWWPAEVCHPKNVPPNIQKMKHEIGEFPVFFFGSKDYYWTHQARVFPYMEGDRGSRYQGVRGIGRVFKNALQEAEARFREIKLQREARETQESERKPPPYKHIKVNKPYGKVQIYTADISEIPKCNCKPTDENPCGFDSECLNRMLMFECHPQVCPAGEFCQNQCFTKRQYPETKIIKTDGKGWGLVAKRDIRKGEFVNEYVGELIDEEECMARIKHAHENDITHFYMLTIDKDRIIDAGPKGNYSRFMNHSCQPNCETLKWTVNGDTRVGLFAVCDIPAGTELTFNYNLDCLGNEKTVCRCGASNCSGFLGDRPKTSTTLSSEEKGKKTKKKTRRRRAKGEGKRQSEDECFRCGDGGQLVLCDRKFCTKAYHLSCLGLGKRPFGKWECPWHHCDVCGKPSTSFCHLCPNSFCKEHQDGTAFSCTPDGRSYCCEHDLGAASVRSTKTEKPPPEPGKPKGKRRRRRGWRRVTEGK

[7] = biological target: T4, RNA-binding protein pos-1 (Caenorhabditis elegans, UniProt G5EF15); assay: disruptors of C. elegans POS-1 RNA interaction – biochemical, fluorescence polarization, dose response (AID 1964);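 also: purified POS-1 fused to maltose binding protein made in E. coli; potency of compounds blocking POS-1 binding to fluorescent RNA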
T4 sequence (G5EF15 whole entry): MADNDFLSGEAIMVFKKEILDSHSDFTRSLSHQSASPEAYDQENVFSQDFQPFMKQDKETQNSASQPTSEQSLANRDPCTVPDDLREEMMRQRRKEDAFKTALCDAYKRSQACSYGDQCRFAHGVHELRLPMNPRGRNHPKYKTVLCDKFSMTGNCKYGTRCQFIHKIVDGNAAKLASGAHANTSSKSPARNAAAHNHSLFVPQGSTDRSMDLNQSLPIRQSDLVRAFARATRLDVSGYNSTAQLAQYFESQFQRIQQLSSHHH

[8] = biological target: T5, Zinc finger protein mex-5 (Caenorhabditis elegans, UniProt Q9XUB2); assay: potency of MEX-5 RNA-binding blockers – biochemical, C. elegans, fluorescence polarization, dose response (AID 1960)
T5 sequence (Q9XUB2 whole entry): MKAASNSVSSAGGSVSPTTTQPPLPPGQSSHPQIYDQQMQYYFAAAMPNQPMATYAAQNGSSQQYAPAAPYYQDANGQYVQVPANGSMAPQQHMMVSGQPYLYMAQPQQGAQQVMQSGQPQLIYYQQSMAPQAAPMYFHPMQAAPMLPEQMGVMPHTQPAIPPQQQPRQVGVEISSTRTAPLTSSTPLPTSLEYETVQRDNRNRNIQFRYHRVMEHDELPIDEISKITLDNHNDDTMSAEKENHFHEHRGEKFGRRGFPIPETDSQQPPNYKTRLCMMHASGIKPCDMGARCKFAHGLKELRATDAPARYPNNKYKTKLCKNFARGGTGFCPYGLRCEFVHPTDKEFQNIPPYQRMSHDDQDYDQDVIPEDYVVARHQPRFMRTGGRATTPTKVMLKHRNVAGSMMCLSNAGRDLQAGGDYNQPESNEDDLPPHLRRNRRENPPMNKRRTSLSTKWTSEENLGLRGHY

[9] = Luminescence Cell-Based Dose Confirmation HTS to Identify Activators of 5'UTR Stem-Loop Driven Alpha-Synuclein mRNA Translation in H4 Neuroglioblastoma Cells. [Related pubchem assays: 1829 (Project Summary), 1814 (Primary HTS)]; assay type: functional
H4 = assay: Luminescence Cell-Based Dose Response HTS to Identify Activators of 5'UTR Stem-Loop Driven Prion Protein mRNA Translation in H4 Neuroglioblastoma Cells. [Related pubchem assays: 1829 (Project Summary), 1814 (Primary HTS)]; assay type: functional; settings: Homo sapiens
[10] = Dd2 malaria parasite growth inhibition potency – SYBR Green, dry powder samples, dose response (AID 1159566); assay type: functional, cell-based;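 also: potency for growth inhibition with lower SYBR green DNA signal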
[11] = growth inhibition of yeast DHODH-expressing 3D7 parasites – SYBR Green, dry powder samples, dose response (AID 1159570); assay type: functional, cell-based;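 also: parasite growth measured after 72 hours of compound exposure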
[12] = P. falciparum Dd2 growth inhibitors, dose response, SYBR Green, cherry-picked samples (AID 1159567); assay type: functional, cell-based
[13] = toxicity to human HepG2 hepatoma cells – cell-based, plate reader, dry powder samples, cytotoxicity control, dose response (AID 1159569); assay type: functional;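 also: inhibitor potency with signal falling toward the positive control level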
[14] = growth inhibition of PfATP4-mutant resistant parasites – NITD609-resistant line, SYBR Green, dry powder, dose response (AID 1159571); assay type: functional, cell-based;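 also: parasites synchronized at ring stage by sorbitol before testing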
[15] = toxicity to human hepatoma HepG2 cells – cell-based, cherry-picked samples, cytotoxicity control, dose response (AID 1159577); assay type: functional
[16] = viability loss in THP-1 monocytes – THP-1 cells, cytotoxicity control for Vif-APOBEC3G degradation inhibitor project, dose response (AID 1117359); assay type: functional; settings: THP-1
[17] = biological target: T6, Rac GTPase-activating protein 1 (Homo sapiens, UniProt Q9H0H5); assay: blockers of MgcRacGAP-driven Rac1 GTP hydrolysis – biochemical, ADP Hunter fluorescence, primary and confirmatory, confirmation (AID 624330); assay type: functional
T6 sequence (Q9H0H5 whole entry): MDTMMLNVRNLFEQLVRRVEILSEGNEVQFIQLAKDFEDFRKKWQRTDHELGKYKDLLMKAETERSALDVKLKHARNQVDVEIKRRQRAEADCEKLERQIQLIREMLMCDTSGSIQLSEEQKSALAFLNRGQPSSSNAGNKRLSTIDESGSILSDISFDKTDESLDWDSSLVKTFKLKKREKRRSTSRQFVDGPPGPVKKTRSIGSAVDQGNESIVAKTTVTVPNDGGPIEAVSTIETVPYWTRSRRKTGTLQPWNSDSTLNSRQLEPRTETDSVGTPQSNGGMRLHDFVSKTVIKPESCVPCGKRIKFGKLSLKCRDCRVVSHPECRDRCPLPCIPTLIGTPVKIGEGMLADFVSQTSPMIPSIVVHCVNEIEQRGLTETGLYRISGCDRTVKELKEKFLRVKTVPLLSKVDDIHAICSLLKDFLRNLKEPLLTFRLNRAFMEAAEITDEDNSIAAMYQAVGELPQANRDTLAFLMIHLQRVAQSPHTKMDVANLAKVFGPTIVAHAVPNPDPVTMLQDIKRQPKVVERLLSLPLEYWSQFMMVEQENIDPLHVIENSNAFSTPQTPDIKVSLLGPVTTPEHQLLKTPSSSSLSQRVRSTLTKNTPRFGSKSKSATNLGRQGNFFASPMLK

| SMILES | AC50 [10] | AC50 [11] | AC50 [12] | AC50 [13] | AC50 [14] | AC50 [15] | other results |
| --- | --- | --- | --- | --- | --- | --- | --- |
| Nc1c(C(=O)N2CCCCC2)sc2nc3c(cc12)CCCC3 | – | – | – | – | – | – | EC50 [1]: 0.682 µM (active); EC50 [2]: 0.923 µM (active); EC50 [3]: < 0.1 µM (active); EC50 [4]: 0.322 µM (active) |
| Cc1cc(C=O)c(C)n1-c1cc(C(=O)O)cc(C(=O)O)c1 | – | – | – | – | – | – | AC50 (Caspase-6): 1.71 µM (active); IC50 [5]: 3.16 µM (active); AC50 [6]: > 20 µM (inactive); EC50 [7]: > 300 µM (not active); EC50 [8]: > 300 µM (not active) |
| Cc1ccc(-n2c(C)csc2=N)cc1 | – | – | – | – | – | – | EC50 [9]: < 0.1 µM (active); EC50 [1]: 0.373 µM (active); EC50 [2]: 8.21 µM (active); EC50 [3]: 0.102 µM (active); EC50 [4]: 0.421 µM (active); EC50 (H4): 0.547 µM (active) |
| CCCN1[C@H](CO)[C@H](c2ccc(C3=CCCC3)cc2)[C@H]1CN(C(C)=O)C1CCCC1 | 1.75 µM (active) | 3.26 µM (active) | 1.92 µM (active) | 72.1 µM (active) | 1.6 µM (active) | – | – |
| COc1cccc(CN2C[C@@H]3N[C@H](C2)[C@@H]3c2ccc(-c3ccc(C#N)cc3)cc2)c1 | – | – | 3.09 µM (active) | – | – | 9.63 µM (active) | – |
| C[C@H](CO)N1C[C@H](C)[C@@H](CN(C)C(=O)CCCN(C)C)OCc2cnnn2CCCC1=O | – | – | – | – | – | > 42 µM (inactive) | – |
| COc1ccc(OC)c(NC(=O)CSc2nc3ccccc3c(=O)n2CC2CCCO2)c1 (centres undefined) | – | – | – | – | – | – | CC50 [16]: > 40 µM (active) |
| COc1cc(Br)c(CNc2cc(C)ccc2C)cc1OC | – | – | – | – | – | – | CC50 [16]: 12.6 µM (active); IC50 [17]: 97.4 µM (active) |
| OC[C@@H]1Nc2ccc(C#Cc3cccc(F)c3)cc2[C@H]2NCC[C@@H]12 | 0.804 µM (active) | 1.15 µM (active) | 3.01 µM (active) | 17.5 µM (active) | 2.34 µM (active) | 25.6 µM (active) | – |
| COc1ccc(C#Cc2cccc(-c3nc(C(=O)Nc4ccc(-c5ccccc5)cc4)cc4c3[C@@H](CCO)N([S+]([O-])C(C)(C)C)C4)c2)cc1OC (some centres undefined) | 0.486 µM (active) | 1.12 µM (active) | 0.995 µM (active) | 24.1 µM (active) | 0.621 µM (active) | > 39 µM (inactive) | – |
| N#C[C@@H]1[C@@H](c2ccccc2C2=CCCC2)[C@@H](CO)N1C(=O)NC1CCCC1 | 0.592 µM (active) | 10.9 µM (active) | 0.791 µM (active) | 56.8 µM (active) | 0.744 µM (active) | – | – |
| NCCC(=O)N1c2ccccc2Sc2ccccc21 | – | – | – | – | – | – | CC50 [16]: > 40 µM (active) |

Reference: ChEMBL document CHEMBL1201862, “PubChem BioAssay data set” (2004)
